Literature values in patent publication US10632043B2, “Premix formulation for parenteral use and packaging thereof” (Aurobindo Pharma Ltd, priority 2015, dated 2020).
Read-outs that look alike come from different tables or passages of the source.

Settings: for time stable: diluted to 4 mg/mL in 0.9% sodium chloride injection, polypropylene (PP) syringes

Cc1cccc([C@H](C)c2cnc[nH]2)c1C [dexmedetomidine]
loss of drug potency (PP syringe, over 48 hours): about 5% | time stable (5° C.): 14 days | time stable (20-25° C.): 2 days | loss of drug concentration (syringes at room temperature, over 48 hours): < 10% | loss of drug concentration (syringes, refrigerated, over 14 days): < 5%
